# Reference: patent US6660742B2, “Compositions and methods of the use thereof achiral analogues of CC-1065 and the duocarmycins” (priority 2000, dated 2003)
# Several values for one entry are separate records, joined by “and”; a condition that tells them apart may be missing. Equal entries are not always repeated. Where two headings read alike, the source gives them in different places.
# What was measured:
# [1] = test system: OVCAR-8; experiment: NCI screen, OVCAR-8 (Ovarian Cancer)
# Description: (§1) The compounds of this invention were also tested against the panel of 60 human cancer cell lines at the National Cancer Institute, Bethesda, Md. (44). The cytrotoxicity studies were conducted using a 48 hour exposure, and measuring the optical density of sulforhodamide B-derived color.
# [2] = test system: PC-3; experiment: NCI screen, PC-3 (Prostrate Cancer)
# Description: (§2) The compounds of this invention were also tested against the panel of 60 human cancer cell lines at the National Cancer Institute, Bethesda, Md. […] The cytrotoxicity studies were conducted using a 48 hour exposure, and measuring the optical density of sulforhodamide B-derived color.
# [3] = test system: BT-549; experiment: NCI screen, BT-549 (Breast Cancer)
# Description: as §1
# [4] = test system: MDA-MB-231/ATCC; conditions: MDA-MB-231/ATCC
# [5] = test system: RXF 393; experiment: NCI screen, RXF 393 (Renal Cancer)
# Description: as §2
# [6] = test system: MDA-MB-435; experiment: NCI screen, MDA-MB-435 (Breast Cancer); assay type: cell-based, human
# Description: as §2
# [7] = test system: A549/ATCC
# [8] = test system: SF-295; experiment: NCI screen, SF-295 (CNS Cancer)
# Description: as §2
# [9] = test system: UACC-62; experiment: NCI screen, UACC-62 (Melanoma)
# Description: as §2
# [10] = test system: LOX IMVI; experiment: NCI screen, LOX IMVI (Melanoma)
# Description: as §1
# [11] = test system: panel of 60 human cancer cell lines; experiment: NCI in-vitro cytotoxicity screen, whole panel; assay type: cell-based
# [12] = test system: SF-268; experiment: NCI screen, SF-268 (CNS Cancer)
# Description: as §1
# [13] = test system: SK-OV-3; experiment: NCI screen, SK-OV-3 (Ovarian Cancer)
# Description: as §2
# [14] = test system: MOLT-4; experiment: NCI screen, MOLT-4 (Leukemia)
# Description: as §2
# [15] = test system: ACHN; assay type: cell-based, human
# [16] = test system: M14; experiment: NCI screen, M14 (Melanoma)
# Description: as §2
# [17] = test system: UACC-257; experiment: NCI screen, UACC-257 (Melanoma)
# Description: as §2
# [18] = test system: U251; experiment: NCI screen, U251 (CNS Cancer)
# Description: as §2
# [19] = test system: SK-MEL-2; experiment: NCI screen, SK-MEL-2 (Melanoma)
# Description: as §2
# [20] = test system: 786-0; experiment: NCI screen, 786-0 (Renal Cancer)
# Description: as §2
# [21] = test system: MDA-N; experiment: NCI screen, MDA-N (Breast Cancer)
# Description: as §2
structure (smiles),measurement,setting,value
"O=C(Nc1cc(O)ccc1CCCl)c1cc2cc(NC(=O)c3cc4ccccc4o3)ccc2[nH]1 [Compound 1, 4-(2-Chloroethyl)-3-[5-(5-benzofuran-2-carboxamido)indole-2-carboxamido]phenol]",Percent Growth,[1],−61%
same,GI50,[1]; OVCAR-8,1320 nM
same,TGI,[1]; OVCAR-8,3.28E−06 Molar
same,Percent Growth,"[1]; OVCAR-8, Log10 Concentration −4.0",−63%
same,Percent Growth,"[1]; OVCAR-8, Log10 Concentration −6.0",65%
same,Percent Growth,"[1]; OVCAR-8, Log10 Concentration −7.0",94%
same,Percent Growth,"[1]; OVCAR-8, Log10 Concentration −8.0",94%
same,GI50,[2],969 nM
same,TGI,[2],3.99E−06 Molar
same,Percent Growth,[2]; Log10 Concentration −4.0,−99%
same,Percent Growth,[2]; Log10 Concentration −7.0,98%
same,Percent Growth,[2]; Log10 Concentration −8.0,96%
same,Percent Growth,[3],110%
same,GI50,[3]; BT-549,3600 nM
same,TGI,[3]; BT-549,2.05E−05 Molar
same,Percent Growth,"[3]; BT-549, Log10 Concentration −4.0",−20%
same,Percent Growth,"[3]; BT-549, Log10 Concentration −5.0",9%
same,Percent Growth,"[3]; BT-549, Log10 Concentration −6.0",101%
same,Percent Growth,"[3]; BT-549, Log10 Concentration −7.0",103%
same,GI50,[4],2430 nM
same,TGI,[4],7.10E−06 Molar
same,Percent Growth,[4]; Log10 Concentration −4.0,−65%
same,Percent Growth,[4]; Log10 Concentration −5.0,−16%
same,Percent Growth,[4]; Log10 Concentration −6.0,92%
same,Percent Growth,[4]; Log10 Concentration −7.0,97%
same,Percent Growth,[4]; Log10 Concentration −8.0,94%
same,GI50,[5],982 nM
same,TGI,[5],2.18E−06 Molar
same,Percent Growth,[5]; Log10 Concentration −4.0,−94%
same,Percent Growth,[5]; Log10 Concentration −5.0,−97%
same,Percent Growth,[5]; Log10 Concentration −6.0,50%
same,Percent Growth,[5]; Log10 Concentration −7.0,74%
same,Percent Growth,[5]; Log10 Concentration −8.0,104%
same,GI50,[6],1890 nM
same,TGI,[6],3.75E−06 Molar
same,Percent Growth,[6]; Log10 Concentration −4.0,−94%
same,Percent Growth,[6]; Log10 Concentration −6.0,96%
same,GI50,[7],1980 nM
same,TGI,[7],6.58E−06 Molar
same,Percent Growth,[7]; Log10 Concentration −4.0,−100%
same,Percent Growth,[7]; Log10 Concentration −6.0,78%
same,Percent Growth,[7]; Log10 Concentration −8.0,96%
same,Percent Growth,[8],92% and 94%
same,GI50,[8]; SF-295,2320 nM
same,TGI,[8]; SF-295,6.46E−06 Molar
same,Percent Growth,"[8]; SF-295, Log10 Concentration −4.0",−96%
same,Percent Growth,"[8]; SF-295, Log10 Concentration −5.0",−21%
same,Percent Growth,"[8]; SF-295, Log10 Concentration −6.0",91%
same,GI50,[9],1970 nM
same,TGI,[9],3.49E−06 Molar
same,Percent Growth,[9]; Log10 Concentration −4.0,−99%
same,Percent Growth,[9]; Log10 Concentration −7.0,104%
same,Percent Growth,[9]; Log10 Concentration −8.0,100%
same,Percent Growth,[10],106%
same,GI50,[10]; LOX IMVI,2430 nM
same,TGI,[10]; LOX IMVI,6.93E−06 Molar
same,Percent Growth,"[10]; LOX IMVI, Log10 Concentration −4.0",−70%
same,Percent Growth,"[10]; LOX IMVI, Log10 Concentration −5.0",−17%
same,Percent Growth,"[10]; LOX IMVI, Log10 Concentration −6.0",92%
same,Percent Growth,"[10]; LOX IMVI, Log10 Concentration −7.0",101%
same,range of activity,[11]; 48 hour exposure,micromolar range
same,activity against leukemia cells,[11]; leukemia cells,none of these compounds showed much activity
same,activity against melanoma cells,[11]; melanoma cells,active
same,activity against solid tumors cells,[11]; solid tumors cells,strong activity
same,Percent Growth,[12],68% and 70% and 88%
same,GI50,[12]; SF-268,13400 nM
same,TGI,[12]; SF-268,2.78E−05 Molar
same,Percent Growth,"[12]; SF-268, Log10 Concentration −4.0",−88%
same,Percent Growth,"[12]; SF-268, Log10 Concentration −7.0",88%
same,GI50,[13],2930 nM
same,TGI,[13],7.64E−06 Molar
same,Percent Growth,[13]; Log10 Concentration −4.0,−99%
same,Percent Growth,[13]; Log10 Concentration −7.0,102%
same,GI50,[14],1140 nM
same,Percent Growth,[14]; Log10 Concentration −4.0,4%
same,GI50,[15],1530 nM
same,TGI,[15],5.55E−06 Molar
same,Percent Growth,[16],−75%
same,GI50,[16]; M14,1490 nM
same,TGI,[16]; M14,3.19E−06 Molar
same,Percent Growth,"[16]; M14, Log10 Concentration −4.0",−99%
same,Percent Growth,"[16]; M14, Log10 Concentration −6.0",76%
same,Percent Growth,"[16]; M14, Log10 Concentration −7.0",91%
same,Percent Growth,"[16]; M14, Log10 Concentration −8.0",93%
same,GI50,[17],1880 nM
same,TGI,[17],3.40E−06 Molar
same,Percent Growth,[17]; Log10 Concentration −4.0,−97%
same,Percent Growth,[17]; Log10 Concentration −7.0,104%
same,Percent Growth,[17]; Log10 Concentration −8.0,102%
same,Percent Growth,[18],77%
same,GI50,[18]; U251,2410 nM
same,TGI,[18]; U251,1.23E−05 Molar
same,Percent Growth,"[18]; U251, Log10 Concentration −4.0",−71%
same,Percent Growth,"[18]; U251, Log10 Concentration −5.0",7%
same,Percent Growth,"[18]; U251, Log10 Concentration −7.0",101%
same,GI50,[19],1320 nM
same,TGI,[19],2.67E−06 Molar
same,Percent Growth,[19]; Log10 Concentration −4.0,−91%
same,Percent Growth,[19]; Log10 Concentration −7.0,101%
same,GI50,[20],2620 nM
same,TGI,[20],1.07E−05 Molar
same,Percent Growth,[20]; Log10 Concentration −4.0,−50%
same,Percent Growth,[20]; Log10 Concentration −5.0,2%
same,Percent Growth,[20]; Log10 Concentration −6.0,85%
same,Percent Growth,[20]; Log10 Concentration −7.0,101%
same,Percent Growth,[20]; Log10 Concentration −8.0,98%
same,Percent Growth,[21],−35%
same,GI50,[21]; MDA-N,2280 nM
same,TGI,[21]; MDA-N,5.47E−06 Molar
same,Percent Growth,"[21]; MDA-N, Log10 Concentration −4.0",−87%
same,Percent Growth,"[21]; MDA-N, Log10 Concentration −6.0",97%
same,Percent Growth,"[21]; MDA-N, Log10 Concentration −7.0",103%
same,Percent Growth,"[21]; MDA-N, Log10 Concentration −8.0",100%
